Measured values reported in BindingDB's records for doi:10.1021/jm020050+ (Glaxosmithkline, 2002).

Columns and labels:
[1] = biological target: T1, Enoyl-[acyl-carrier-protein] reductase [NADH] FabI (Haemophilus influenzae (strain ATCC 51907 / DSM 11121 / KW20 / Rd), UniProt P44432); experiment: Enzyme Inhibition Assay; settings: 30 °C
T1 sequence (P44432 whole entry): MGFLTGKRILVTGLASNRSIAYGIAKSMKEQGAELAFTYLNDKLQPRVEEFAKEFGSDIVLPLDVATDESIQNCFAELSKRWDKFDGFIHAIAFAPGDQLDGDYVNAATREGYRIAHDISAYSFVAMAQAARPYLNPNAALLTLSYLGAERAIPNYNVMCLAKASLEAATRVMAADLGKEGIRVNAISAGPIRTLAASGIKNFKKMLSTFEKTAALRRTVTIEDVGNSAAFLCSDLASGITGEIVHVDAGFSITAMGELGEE
Description: (§1) Assays were carried out in half-area, 96-well microtiter plates. Compounds were evaluated in assay mixtures containing components specific for each enzyme. […] The consumption of NAD(P)H was monitored for 20 min at 30 °C by following the change in absorbance at 340 nm. IC50 values were estimated from a fit of the initial velocities to a standard equation.

[2] = biological target: T2, Enoyl-[acyl-carrier-protein] reductase [NADPH] FabI (Staphylococcus aureus (strain MRSA252), UniProt Q6GI75); experiment: Enzyme Inhibition Assay; settings: pH 6.5; 30 °C
T2 sequence (Q6GI75 whole entry): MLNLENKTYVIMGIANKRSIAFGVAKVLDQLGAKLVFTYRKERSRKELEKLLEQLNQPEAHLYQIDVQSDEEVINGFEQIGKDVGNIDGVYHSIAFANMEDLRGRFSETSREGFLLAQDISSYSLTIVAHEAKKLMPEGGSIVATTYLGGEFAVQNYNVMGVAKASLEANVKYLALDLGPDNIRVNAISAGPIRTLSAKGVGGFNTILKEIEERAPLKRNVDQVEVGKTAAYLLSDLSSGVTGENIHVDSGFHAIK
Description: as §1

Row | IC50 [1] [µM] | IC50 [2] [µM] | SMILES
1 | > 100 | 676 | COC(=O)C[C@@H]1Nc2ccc(C(=O)N(C)Cc3cc4ccccc4n3C)cc2CN(C)C1=O [(2S)-2-[(Carbomethoxy)methyl]-N,4-dimethyl-N-(1-methyl-1H-indol-2-ylmethyl)-3-oxo-2,3,4,5-tetrahydro-1H-1,4-benzodiazepine-7-carboxamide]
2 | – | 11.2 | CN(Cc1cc2ccccc2n1C)C(=O)/C=C/c1ccc(N)cc1 [(E)-3-(4-Aminophenyl)-N-methyl-N-(1-methyl-1H-indol-2-ylmethyl)acrylamide]
3 | > 100 | – | CN(Cc1cc2ccccc2n1C)C(=O)c1ccccc1 [N-Methyl-N-(1-methyl-1H-indol-2-ylmethyl)benzamide]
